Experimental data from patent US5216001A, “Indole derivatives” (H. Lunbeck A/S, priority 1990, dated 1993).
Read-outs that look alike come from different tables or passages of the source.

How the values were obtained:
Type in all cases: in vivo
DA D-2 = biological target: T1, DA D-2 (Rattus norvegicus, UniProt P61169); experiment: antagonism of pergolide-induced circling behaviour in rats with unilateral 6-OHDA lesions; conditions: sc
T1 construct: Male Wistar rats (Mol:Wist) weighing about 200 g at the time of operation are used; from tissue; host or cells: living male Wistar (Mol:Wist) rats with unilateral 6-OHDA lesions (in vivo, endogenous receptor)
Description: ANTAGONISM OF PERGOLIDE-INDUCED CIRCLING BEHAVIOUR IN RATS WITH UNILATERAL 6-OHDA LESIONS
Dopamine (DA) D-2 agonists induce contralateral circling behaviour in rats with 6-OHDA lesions. Pergolide-induced circling is antagonized by DA D-2 antagonists.
Male Wistar rats (Mol:Wist) weighing about 200 g at the time of operation are used. Unilateral lesions are made in pentobarbital anaesthetized rats by injection of 6-OHDA. HCl 9.7 μg/μl (equivalent to 8 μg free base) per 4 min. into the rostral tip of the substantia nigra. The saline solution contains ascorbic acid 0.2 mg/ml, is bubbled with N2 and is kept ice-cold. The experiments are done when stable contralateral circling responses to pergolide (0.05 μmol/kg, s.c.) are obtained. The circling response is measured in rotometer bowls. Only rats showing more than 400 complete turns in 2 hrs control session are used. Dose-response curves are obtained by alternating test and control sessions on a weekly basis. The antagonists are injected s.c. 2 hrs before the agonist. The effect of individual doses of test drugs is calculated as per cent of the mean effect of control sessions one week before and one week after the test session for each rat. ED50 values are calculated by log-probit analysis. Four to eight rats are used at each dosage.

5-HT2 [1] = biological target: T2, 5-HT2 (Rattus norvegicus, UniProt P14842); experiment: quipazine inhibition (quipazine-induced head twitches in rats)
T2 construct: Four rats, male Wistar (Mol:Wist) SPF rats weighing 170-240 g; from tissue; host or cells: living male Wistar (Mol:Wist) SPF rats (in vivo, endogenous receptor)
Description: Quipazine is a 5-HT2 agonist, which induces head twitches in rats. The test is a test for 5-HT2 -antagonistic effect testing the ability to inhibit head twitches. The method and test results for some reference substances are published by Arnt et al. (Drug Development Research, 16, 59-70, 1989).
Test substance is injected s.c. 2 hrs before or p.o. 24 hrs before quipazine administration (6.8 mg/kg, s.c., dimaleate). Four rats, male Wistar (Mol:Wist) SPF rats weighing 170-240 g, are used at each dose level. A control group is included each test day. By repeated testing (2, 24 hrs) the control group is the same, however. After quipazine administration the rats are individually placed in the observation cages and head twitches are counted in an observation period of 30-40 min. after injection of quipazine.
Total number of head twitches in each group is calculated and the result for each dose is expressed as per cent of the response in the control group. ED50 values are calculated by log-probit analysis. The test must be repeated if the average number of head twitches is lower than 9 in the control group.

5-HT2 [2] = biological target: T2, 5-HT2; experiment: as above; conditions: sc, 24 h, read-out: Quipazine inhibition ED50, 24h (sc)
[3] = po, 24 h, read-out: Quipazine inhibition ED50, 24h (po)
[4] = sc, 2 h, read-out: Quipazine inhibition ED50, 2h (sc)
[5] = read-out: Pergolide rot. inhibition ED50, 2h (sc), 6-OHDA lesions, s.c., 2 h before pergolide

T1 sequence (P61169 whole entry): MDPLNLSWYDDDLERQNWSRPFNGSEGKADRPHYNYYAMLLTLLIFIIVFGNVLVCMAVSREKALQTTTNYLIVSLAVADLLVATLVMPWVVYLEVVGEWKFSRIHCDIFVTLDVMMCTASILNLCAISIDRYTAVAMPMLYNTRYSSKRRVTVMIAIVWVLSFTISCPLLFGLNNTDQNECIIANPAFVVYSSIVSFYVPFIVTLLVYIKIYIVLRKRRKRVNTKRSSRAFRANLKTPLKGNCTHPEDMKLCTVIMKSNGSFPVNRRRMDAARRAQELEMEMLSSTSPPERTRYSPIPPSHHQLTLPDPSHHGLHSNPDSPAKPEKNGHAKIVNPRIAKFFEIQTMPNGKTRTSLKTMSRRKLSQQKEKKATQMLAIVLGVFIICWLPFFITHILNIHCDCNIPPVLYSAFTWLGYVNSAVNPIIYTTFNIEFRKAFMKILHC
T2 sequence (P14842 whole entry): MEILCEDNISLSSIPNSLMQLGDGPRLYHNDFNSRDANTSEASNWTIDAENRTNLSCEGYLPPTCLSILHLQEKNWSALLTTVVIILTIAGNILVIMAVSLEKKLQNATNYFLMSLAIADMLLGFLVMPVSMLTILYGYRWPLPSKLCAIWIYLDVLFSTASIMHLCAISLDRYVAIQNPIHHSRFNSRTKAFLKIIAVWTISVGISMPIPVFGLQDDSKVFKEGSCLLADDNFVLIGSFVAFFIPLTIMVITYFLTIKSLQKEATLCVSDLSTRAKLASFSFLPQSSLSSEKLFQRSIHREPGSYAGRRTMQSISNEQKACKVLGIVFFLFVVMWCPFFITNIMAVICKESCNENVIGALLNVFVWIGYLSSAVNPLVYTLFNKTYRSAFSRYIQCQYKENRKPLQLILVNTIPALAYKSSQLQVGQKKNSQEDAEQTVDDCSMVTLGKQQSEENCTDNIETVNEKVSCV

| SMILES | ED50 (DA D-2; 2 h, read-out: Pergolide rot. inhibition ED50, 2h (sc)) [µmol/kg] | ED50 (5-HT2 [1]; [3]) [µmol/kg] | ED50 (5-HT2 [1]; [4]) [µmol/kg] | ED50 (DA D-2; [5]) [µmol/kg] | ED50 (5-HT2 [2]) [µmol/kg] | Quipazine inhibition ED50, 2h (sc) (5-HT2 [1]; s.c., 2 h before quipazine) [µmol/kg] |
| --- | --- | --- | --- | --- | --- | --- |
| CC(C)N1CCN(CCN2CCC(c3cn(-c4ccc(F)cc4)c4cc(Cl)ccc34)CC2)C1=O [Compound 4a, 6-chloro-1-(4-fluorophenyl)-3-[1-[2-[3-(2-propyl)-2-imidazolidinon-1-yl]ethyl]-4-piperidyl]-1H-indole] | > 17 | 0.06 | 0.11 |  |  |  |
| Cc1ccc2c(C3CCN(CCN4CCNC4=O)CC3)cn(-c3ccc(F)cc3)c2c1 [Compound 4g, 1-(4-fluorophenyl)-3-[1-[2-(2-imidazolidinon-1-yl)ethyl]-4-piperidyl]-6-methyl-1H-indole] |  | 0.04 | 0.02 | > 24 |  |  |
| Cc1ccc2c(C3CCN(CCN4CCN(C(C)C)C4=O)CC3)cn(-c3ccc(F)cc3)c2c1 [Compound 5a, 1-(4-fluorophenyl)-6-methyl-3-[1-[2-[3-(2-propyl)-2-imidazolidinon-1-yl]ethyl]-4-piperidyl]-1H-indole] |  | 0.11 | 0.04 | > 18 |  |  |
| OCCN1CCN(c2cn(-c3ccc(F)cc3)c3ccc(C(F)(F)F)cc23)CC1 [Lu 21-152, 1-(4-fluorophenyl)-3-[4-(2-hydroxyethyl)-1-piperazinyl]-5-trifluoromethyl-1H-indole, reference compound] |  |  |  | 0.02 | 0.15 | 0.02 |
